# Results taken from patent US20220370484A1, “NOVEL USE OF NICOTINAMIDE MONONUCLEOTIDE (NMN) AND NICOTINAMIDE RIBOSIDE (NR)” (Senju Pharmaceutical Co., Ltd., priority 2019, published 2022).
# How the values were obtained:
# Type in all cases: in vivo, mouse
# [1] = tested on: lipid components in meibomian glands; assay: Lipid analysis of meibomian glands after eye drop instillation (APCI); details: 1.75 year old WT mice, eye drop instillation 3 months as Example 3, compared to Vehicle (phosphate buffered saline)
# Description: (1) The Eye Drop Instillation Experiment is Performed in the Same Manner as Example 3. Meibomian glands are harvested from an eyelid of a euthanized mouse. Two meibomian glands harvested from one of the eyes of each animal are each placed in a glass vial containing 1 mL of chloroform:methanol=2:1 (v/v) solvent mixture for lipid extraction, and lipids are extracted. The extract is relocated into a new vial. The extract can be stored for several months at −20° C. or lower by evaporating the solution under nitrogen. The extract is then dissolved in a suitable solvent, and lipid composition is analyzed by APCI.
# [2] = tested on: meibomian gland basal cells; assay: Cell proliferation assay through BrdU incorporation staining after eye drop instillation; details: 1.5 year old WT mice, 5% eye drop (5 μL/eye, 6 times/day, only right eye), 2 weeks, vs Vehicle (phosphate buffered saline)
# Description: [table] BrdU (100 mg/kg body weight, Sigma-Aldrich) was intraperitoneally injected 30 minutes prior to harvesting eyelid tissue from a mouse. An eyelid comprising meibomian glands was immobilized with 4% PFA and embedded in paraffin. Antigens were activated by pressurizing a 5 μm thick segment for 2.5 minutes in 10 mM sodium citrate buffer (pH 6.0). After incubating the segment for 24 hours at 4° C. by using an anti-BrdU antibody (1:1000 dilution; Rockland Inc.), the immune response was made visible with 3,3′-diaminobenzidine (DAB) using secondary antibody Envision+ System—HRP Labelled Polymer Anti-Rabbit (Dako). For each tissue segment, BrdU positive cells in the basal cell layer of a meibomian gland were counted on a digital microscope picture captured at 20× magnification. The length of the outer circumference of a meibomian gland acinus was measured with ImageJ software, and the total BrdU positive cell count was normalized with the length of the outer circumference. The BrdU positive cells were counted by using 16 segments per individual.
# [3] = tested on: meibomian gland tissue; assay: Lipid stained tissue observation (meibomian gland volume evaluation), whole mount Herxheimer's staining; details: 1.75 year old WT mice, 5% eye drop (5 μL/eye, 4 times/day, only right eye), 3 months, vs Vehicle (phosphate buffered saline)
# Description: Meibomian gland tissue in mice was stained in accordance with the following protocol.
# As a preparation method of 100 mL of staining solution, a bottle of stock solution prepared by dissolving Sudan IV to saturate in 100% ethanol was left standing in advance, and 70 mL of as much of the supernatant, 20 mL of 10% NaOH, and 10 mL of ultrapure water were mixed, tumbled for 5 minutes, and centrifuged to allow powder to precipitate. The supernatant was filtered with a 0.45 μm filter and used as a staining solution.
# The cervical vertebrae of mice was dislocated, and skin of the head including meibomian glands was sampled. The sample was immersed in 4% paraformaldehyde while keeping the sample flat with a drawing pin, and immobilized using a rotator at 4° C. for 24 hours. The periphery of meibomian glands was trimmed. The meibomian glands were immersed in 50% ethanol by using a rotator at room temperature for 10 minutes, then immersed for 20 minutes in 70% ethanol, and immersed in a staining solution using a rotator at room temperature for 24 hours in a falcon tube. The meibomian glands were then immersed for 10 minutes in 70% ethanol, and washing was repeated several times to confirm that the meibomian glands were stained well. The meibomian glands were immersed for 24 hours in amino alcohol in glycerin prepared by mixing 3.75 mL of 80% amino alcohol with 8.25 mL glycerin. […]
# [4] = tested on: Hsd3b6; assay: Measurement of meibomian gland Hsd3b6 enzymatic activity (steroid synthesis activity) after eye drop instillation; details: 1.5 year old WT mice, 5% eye drop (5 μL/eye, 6 times/day, only right eye), 2 weeks, vs Vehicle (phosphate buffered saline)
# Description: The meibomian gland Hsd3b6 enzymatic activity in mice was measured in accordance with the following protocol.
# Hank's balanced salt solution (HBSS) was bubbled with […] for 1 hour or more, and dispensed in 2 mL tubes at 200 μL each. The lid was closed while filled with […]. HBSS was warmed with a 37° C. water bath. A reaction incubator was warmed to 37° C., and a micro tube mixer was installed therein.
# The main power of a flow liquid scintillation counter (Perkin Elmer, Radiomatic 625TR) was turned on, and the main power of HPLC (Waters, 2795 Separations Module) was turned on to perform setup. Mobile phase A was replaced with water, and mobile phase B was replaced with acetonitrile. Once a column (Kanto Chemical, LiChroCART 250-4, LiChrosphere 100RP-18, particle size: 5 μm, 4 mm I.D.×250 mm) was installed, 40% acetonitrile (ACN) (A: 60%, B: 40%) was flown at 0.7 mL/min. The column oven temperature at this time was set to 40° C.
# ^3H-DHEA was added to 1 mL of 40% ACN contained in a 2 mL tube, and the mixture was tapped. A microtube was set on an HPLC holder, and single administration was selected. The peak of contaminant produced after 22 minutes was not collected. […]
Molecule,Lipid components in a meibomian gland [1],BrdU positive cell count in meibomian gland basal cells [2],meibomian gland volume [3],Hsd3b6 enzymatic activity in a meibomian gland [4]
"NC(=O)c1ccc[n+]([C@@H]2O[C@H](CO)[C@@H](O)[C@H]2O)c1 [NR, Nicotinamide riboside]",normalized,increased significantly,significant increase,
Nicotinamide mononucleotide [NMN],normalized,increased significantly,significant increase,increased significantly
